Ends that are not written are not given here.
Columns and labels:
[1] = system: human SIRPalpha; test: Microscale thermophoresis binding of CD47 mimetic probe to hSIRPalpha; settings: 150 μM probe, 50 μM human SIRPalpha
[2] = system: human SIRPalpha; test: Fluorescence response of CD47 mimetic probe upon hSIRPalpha binding; settings: 150 μM probe, 50 μM human SIRPalpha

## EVTELTREGE [CD47 mimetic probe]
[1]
  binding to hSIRPalpha by MST: could bind to hSIRPalpha
[2]
  fluorescence enhancement upon target binding to hSIRPalpha: did not exhibit fluorescence enhancement
